These compounds were tested against MALT1 (Homo sapiens (Human), UniProt Q9UDY8) (assay: MALT1 enzymatic activity inhibition (fluorescence, Ac-LRSR-AMC substrate)). Details: recombinant MALT1 1.5 ng/μl, Ac-LRSR-AMC 1 μM.
Assay type: biochemical
How it was run: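 Recombinant human MALT1 (1.5 ng/μl final) preincubated 10 min at rt with compounds in 50 mM HEPES pH 7.2-7.4, 100 mM NaCl, 900 mM sodium citrate, 10 mM DTT; 1 μM Ac-LRSR-AMC then added. AMC fluorescence read at start and after 30 min 37 °C plus 30 min rt; difference gives signal, % inhibition fitted to IC50.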

Sequence of MALT1 (Q9UDY8 whole entry): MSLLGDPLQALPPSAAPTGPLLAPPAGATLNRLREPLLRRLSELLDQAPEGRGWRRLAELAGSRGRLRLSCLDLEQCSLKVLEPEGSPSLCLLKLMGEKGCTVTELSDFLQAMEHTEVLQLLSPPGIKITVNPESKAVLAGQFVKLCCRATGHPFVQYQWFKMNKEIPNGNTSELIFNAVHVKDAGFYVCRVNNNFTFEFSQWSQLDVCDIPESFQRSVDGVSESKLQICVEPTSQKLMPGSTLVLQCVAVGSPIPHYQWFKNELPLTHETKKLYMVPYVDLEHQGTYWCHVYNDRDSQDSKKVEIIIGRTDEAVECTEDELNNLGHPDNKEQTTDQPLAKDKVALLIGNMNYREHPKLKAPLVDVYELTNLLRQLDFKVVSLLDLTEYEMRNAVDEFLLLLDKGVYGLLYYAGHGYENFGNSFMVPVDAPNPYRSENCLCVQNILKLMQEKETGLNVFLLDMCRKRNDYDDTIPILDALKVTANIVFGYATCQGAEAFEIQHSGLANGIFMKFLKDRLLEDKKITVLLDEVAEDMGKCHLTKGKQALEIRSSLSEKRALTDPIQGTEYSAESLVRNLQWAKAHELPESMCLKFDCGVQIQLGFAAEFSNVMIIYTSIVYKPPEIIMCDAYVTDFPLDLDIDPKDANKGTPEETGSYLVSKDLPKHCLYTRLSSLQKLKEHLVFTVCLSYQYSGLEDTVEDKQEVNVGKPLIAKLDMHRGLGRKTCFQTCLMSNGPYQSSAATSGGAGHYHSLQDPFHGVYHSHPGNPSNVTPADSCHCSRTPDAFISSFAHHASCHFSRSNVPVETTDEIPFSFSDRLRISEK

`O=C(CCOCCN1CCN(c2ccc3c(c2)CN(C2CCC(=O)NC2=O)C3=O)CC1)NCCOc1ncc(Cl)cc1NC(=O)Nc1cnc2ncnn2c1C1CCCCC1` (centres unmarked) [Compound 51, N-[2-[[5-chloro-3-[(7-cyclohexyl-[1,2,4]triazolo[1,5-a]pyrimidin-6-yl)carbamoylamino]-2-pyridyl]oxy]ethyl]-3-[2-[4-[2-(2,6-dioxo-3-piperidyl)-1-oxo-isoindolin-5-yl]piperazin-1-yl]ethoxy]propanamide] and `O=C(CCOCCN1CCN(c2ccc3c(c2)CN(C2CCC(=O)NC2=O)C3=O)CC1)NCCOc1ncc(Cl)cc1NC(=O)Nc1cnc2nccn2c1C1CCCC1` (centres unmarked) [Compound 52, N-[2-[[5-chloro-3-[(5-cyclopentylimidazo[1,2-a]pyrimidin-6-yl)carbamoylamino]-2-pyridyl]oxy]ethyl]-3-[2-[4-[2-(2,6-dioxo-3-piperidyl)-1-oxo-isoindolin-5-yl]piperazin-1-yl]ethoxy]propanamide] cannot be ordered by EC50: greater than 5 µM for the first, greater than 5 µM for the second.

`Cc1cc(NC(=O)Nc2cnc3ccnn3c2C2CCCO2)cnc1-c1noc(CCCC(=O)N2CCN(c3ccc4c(c3)CN(C3CCC(=O)NC3=O)C4=O)CC2)n1` (centres unmarked) [Compound 58, 1-[6-[5-[4-[4-[2-(2,6-dioxo-3-piperidyl)-1-oxo-isoindolin-5-yl]piperazin-1-yl]-4-oxo-butyl]-1,2,4-oxadiazol-3-yl]-5-methyl-3-pyridyl]-3-(7-tetrahydrofuran-2-ylpyrazolo[1,5-a]pyrimidin-6-yl)urea] and `Cc1cc(NC(=O)Nc2cnc3ccnn3c2C2CCCO2)cnc1-c1noc(CCC(=O)N2CCN(c3ccc4c(c3)CN(C3CCC(=O)NC3=O)C4=O)CC2)n1` (centres unmarked) [Compound 60, 1-[6-[5-[3-[4-[2-(2,6-dioxo-3-piperidyl)-1-oxo-isoindolin-5-yl]piperazin-1-yl]-3-oxo-propyl]-1,2,4-oxadiazol-3-yl]-5-methyl-3-pyridyl]-3-(7-tetrahydrofuran-2-ylpyrazolo[1,5-a]pyrimidin-6-yl)urea] cannot be ordered by EC50: no more than 0.2 µM for the first, no more than 0.2 µM for the second.

`Cc1cc2ncc(NC(=O)Nc3cnc(-c4noc(CCCCC(=O)N5CCN(c6ccc7c(c6)CN(C6CCC(=O)NC6=O)C7=O)CC5)n4)c(C)c3)c(C3CCCC3)n2n1` (centres unmarked) [Compound 59, 1-(7-cyclopentyl-2-methyl-pyrazolo[1,5-a]pyrimidin-6-yl)-3-[6-[5-[5-[4-[2-(2,6-dioxo-3-piperidyl)-1-oxo-isoindolin-5-yl]piperazin-1-yl]-5-oxo-pentyl]-1,2,4-oxadiazol-3-yl]-5-methyl-3-pyridyl]urea] and `Cc1cc2ncc(NC(=O)Nc3cnc(-c4noc(CCCCCC(=O)N5CCN(c6ccc7c(c6)CN(C6CCC(=O)NC6=O)C7=O)CC5)n4)c(C)c3)c(C3CCCO3)n2n1` (centres unmarked) [Compound 67, 1-[6-[5-[6-[4-[2-(2,6-dioxo-3-piperidyl)-1-oxo-isoindolin-5-yl]piperazin-1-yl]-6-oxo-hexyl]-1,2,4-oxadiazol-3-yl]-5-methyl-3-pyridyl]-3-(2-methyl-7-tetrahydrofuran-2-yl-pyrazolo[1,5-a]pyrimidin-6-yl)urea] cannot be ordered by EC50: no more than 0.2 µM for the first, no more than 0.2 µM for the second.

`Cc1cc(NC(=O)Nc2cnc3ccnn3c2C2CCCC2)cnc1-c1noc(CCCCCC(=O)Nc2ccc3c(c2)CN(C2CCC(=O)NC2=O)C3=O)n1` (centres unmarked) [Compound 61, 6-[3-[5-[(7-cyclopentylpyrazolo[1,5-a]pyrimidin-6-yl)carbamoylamino]-3-methyl-2-pyridyl]-1,2,4-oxadiazol-5-yl]-N-[2-(2,6-dioxo-3-piperidyl)-1-oxo-isoindolin-5-yl]hexanamide] and `O=C1CCC(N2Cc3cc(NC(=O)CCCc4nc(-c5ncc(NC(=O)Nc6cnc7ccnn7c6C6CCCC6)cc5Cl)no4)ccc3C2=O)C(=O)N1` (centres unmarked) [Compound 80, 4-[3-[3-chloro-5-[(7-cyclopentylpyrazolo[1,5-a]pyrimidin-6-yl)carbamoylamino]-2-pyridyl]-1,2,4-oxadiazol-5-yl]-N-[2-(2,6-dioxo-3-piperidyl)-1-oxo-isoindolin-5-yl]butanamide] cannot be ordered by EC50: no more than 0.2 µM for the first, no more than 0.2 µM for the second.

`Cc1cc(NC(=O)Nc2cnc3ccnn3c2C2CCCO2)cnc1-c1noc(CCCN2CCN(c3ccc4c(c3)CN(C3CCC(=O)NC3=O)C4=O)CC2)n1` (centres unmarked) [Compound 62, 1-[6-[5-[3-[4-[2-(2,6-dioxo-3-piperidyl)-1-oxo-isoindolin-5-yl]piperazin-1-yl]propyl]-1,2,4-oxadiazol-3-yl]-5-methyl-3-pyridyl]-3-(7-tetrahydrofuran-2-ylpyrazolo[1,5-a]pyrimidin-6-yl)urea] and `Cc1cc2ncc(NC(=O)Nc3cnc(-c4noc(CCCCCCN5CCN(c6ccc7c(c6)CN(C6CCC(=O)NC6=O)C7=O)CC5)n4)c(C)c3)c(C3CCCO3)n2n1` (centres unmarked) [Compound 73, 1-[6-[5-[6-[4-[2-(2,6-dioxo-3-piperidyl)-1-oxo-isoindolin-5-yl]piperazin-1-yl]hexyl]-1,2,4-oxadiazol-3-yl]-5-methyl-3-pyridyl]-3-(2-methyl-7-tetrahydrofuran-2-yl-pyrazolo[1,5-a]pyrimidin-6-yl)urea] cannot be ordered by EC50: no more than 0.2 µM for the first, no more than 0.2 µM for the second.

`Cc1cc(NC(=O)Nc2cnc3ccnn3c2C2CCCC2)cnc1-c1noc(CCCCCN2CCN(c3ccc4c(c3)CN(C3CCC(=O)N(C)C3=O)C4=O)CC2)n1` (centres unmarked) [Compound 64, 1-(7-cyclopentylpyrazolo[1,5-a]pyrimidin-6-yl)-3-[5-methyl-6-[5-[5-[4-[2-(1-methyl-2,6-dioxo-3-piperidyl)-1-oxo-isoindolin-5-yl]piperazin-1-yl]pentyl]-1,2,4-oxadiazol-3-yl]-3-pyridyl]urea] and `Cc1cc(NC(=O)Nc2cnc3ccnn3c2C2CCCC2)cnc1-c1noc(CCCCCCN2CCN(c3ccc4c(c3)CN(C3CCC(=O)NC3=O)C4=O)CC2)n1` (centres unmarked) [Compound 68, 1-(7-cyclopentylpyrazolo[1,5-a]pyrimidin-6-yl)-3-[6-[5-[6-[4-[2-(2,6-dioxo-3-piperidyl)-1-oxo-isoindolin-5-yl]piperazin-1-yl]hexyl]-1,2,4-oxadiazol-3-yl]-5-methyl-3-pyridyl]urea] cannot be ordered by EC50: no more than 0.2 µM for the first, no more than 0.2 µM for the second.

`Cc1c(NC(=O)Nc2cnc(-c3noc(CCCCCC(=O)N4CCN(c5ccc6c(c5)CN(C5CCC(=O)NC5=O)C6=O)CC4)n3)c(Cl)c2)cnc2ccnn12` (centres unmarked) [Compound 65, 1-[5-chloro-6-[5-[6-[4-[2-(2,6-dioxo-3-piperidyl)-1-oxo-isoindolin-5-yl]piperazin-1-yl]-6-oxo-hexyl]-1,2,4-oxadiazol-3-yl]-3-pyridyl]-3-(7-methylpyrazolo[1,5-a]pyrimidin-6-yl)urea] and `CC(C)c1c(NC(=O)Nc2cnc(-c3noc(CCCCCC(=O)N4CCN(c5ccc6c(c5)CN(C5CCC(=O)NC5=O)C6=O)CC4)n3)c(Cl)c2)cnc2ccnn12` (centres unmarked) [Compound 66, 1-[5-chloro-6-[5-[6-[4-[2-(2,6-dioxo-3-piperidyl)-1-oxo-isoindolin-5-yl]piperazin-1-yl]-6-oxo-hexyl]-1,2,4-oxadiazol-3-yl]-3-pyridyl]-3-(7-isopropylpyrazolo[1,5-a]pyrimidin-6-yl)urea] cannot be ordered by EC50: 0.2 to 0.5 µM for the first, no more than 0.2 µM for the second.

`CC(C)(C)C(=O)OCN1C(=O)CCC(N2Cc3cc(N4CCN(C(=O)CCCCCc5nc(-c6ncc(NC(=O)Nc7cnc8ccnn8c7C7CCCC7)cc6Cl)no5)CC4)ccc3C2=O)C1=O` (centres unmarked) [Compound 70, [3-[5-[4-[6-[3-[3-chloro-5-[(7-cyclopentylpyrazolo[1,5-a]pyrimidin-6-yl)carbamoylamino]-2-pyridyl]-1,2,4-oxadiazol-5-yl]hexanoyl]piperazin-1-yl]-1-oxo-isoindolin-2-yl]-2,6-dioxo-1-piperidyl]methyl 2,2-dimethylpropanoate] and `O=C1CCC(N2Cc3cc(N4CCN(C(=O)CCCc5nc(-c6ncc(NC(=O)Nc7cnc8ccnn8c7C7CCCC7)cc6Cl)no5)CC4)ccc3C2=O)C(=O)N1` (centres unmarked) [Compound 71, 1-[5-chloro-6-[5-[4-[4-[2-(2,6-dioxo-3-piperidyl)-1-oxo-isoindolin-5-yl]piperazin-1-yl]-4-oxo-butyl]-1,2,4-oxadiazol-3-yl]-3-pyridyl]-3-(7-cyclopentylpyrazolo[1,5-a]pyrimidin-6-yl)urea] cannot be ordered by EC50: no more than 0.2 µM for the first, no more than 0.2 µM for the second.

`O=C1CCC(N2Cc3cc(N4CCN(C(=O)CCCCCc5nc(-c6ncc(NC(=O)Nc7cnc8ccnn8c7C7CCCC7)cc6F)no5)CC4)ccc3C2=O)C(=O)N1` (centres unmarked) [Compound 74, 1-(7-cyclopentylpyrazolo[1,5-a]pyrimidin-6-yl)-3-[6-[5-[6-[4-[2-(2,6-dioxo-3-piperidyl)-1-oxo-isoindolin-5-yl]piperazin-1-yl]-6-oxo-hexyl]-1,2,4-oxadiazol-3-yl]-5-fluoro-3-pyridyl]urea] and `O=C1CCC(N2Cc3cc(N4CCN(C(=O)CCCCc5nc(-c6ncc(NC(=O)Nc7cnc8ccnn8c7C7CCCC7)cc6F)no5)CC4)ccc3C2=O)C(=O)N1` (centres unmarked) [Compound 81, 1-(7-cyclopentylpyrazolo[1,5-a]pyrimidin-6-yl)-3-[6-[5-[5-[4-[2-(2,6-dioxo-3-piperidyl)-1-oxo-isoindolin-5-yl]piperazin-1-yl]-5-oxo-pentyl]-1,2,4-oxadiazol-3-yl]-5-fluoro-3-pyridyl]urea] fall in the same range of EC50: 0.2 to 0.5 µM for the first, 0.2 to 0.5 µM for the second.

`O=C1CCC(N2Cc3cc(N4CCN(CCCCc5nc(-c6ncc(NC(=O)Nc7cnc8ccnn8c7C7CCCC7)cc6Cl)no5)CC4)ccc3C2=O)C(=O)N1` (centres unmarked) [Compound 75, 1-[5-chloro-6-[5-[4-[4-[2-(2,6-dioxo-3-piperidyl)-1-oxo-isoindolin-5-yl]piperazin-1-yl]butyl]-1,2,4-oxadiazol-3-yl]-3-pyridyl]-3-(7-cyclopentylpyrazolo[1,5-a]pyrimidin-6-yl)urea] and `O=C1CCC(N2Cc3cc(N4CCN(C(=O)CCCc5nc(-c6ncc(NC(=O)Nc7cnc8ccnn8c7C7CCCC7)cc6F)no5)CC4)ccc3C2=O)C(=O)N1` (centres unmarked) [Compound 77, 1-(7-cyclopentylpyrazolo[1,5-a]pyrimidin-6-yl)-3-[6-[5-[4-[4-[2-(2,6-dioxo-3-piperidyl)-1-oxo-isoindolin-5-yl]piperazin-1-yl]-4-oxo-butyl]-1,2,4-oxadiazol-3-yl]-5-fluoro-3-pyridyl]urea] cannot be ordered by EC50: no more than 0.2 µM for the first, no more than 0.2 µM for the second.
